Marks after values point to notes of the source that are not given here.
Legend:
1138L = assay: Monolayer proliferation assay (modified propidium iodide); format: cell-based, human; details: mean of duplicate experiments
Method: (§1) In vitro evaluation of compounds for anticancer activity in a panel of 12 human tumour cell lines in a monolayer proliferation assay was carried out at the Oncotest Testing Facility, Institute for Experimental Oncology, Oncotest GmbH, Freiburg.
(§2) The Oncotest cell lines were established from human tumor xenografts as described by Roth et al. 1999. The origin of the donor xenografts was described by Fiebig et al. 1999. Other cell lines were either obtained from the NCI (H460, SF-268, OVCAR-3, DU145, MDA-MB-231, MDA-MB-468) or purchased from DSMZ, Braunschweig, Germany (LNCAP).
(§3) All cell lines, unless otherwise specified, are grown at 37° C. in a humidified atmosphere (95% air, 5% CO2) in a ‘ready-mix’ medium containing RPMI 1640 medium, 10% fetal calf serum, and 0.1 mg/mL gentamicin (PAA, Cölbe, Germany).
(§4) A modified propidium iodide assay was used to assess the effects of the test compound(s) on the growth of twelve human tumor cell lines (Dengler et al., (1995)).
(§5) Briefly, cells were harvested from exponential phase cultures by trypsinization, counted and plated in 96 well flat-bottomed microtitre plates at a cell density dependent on the cell line (5-10,000 viable cells/well). After 24 h recovery to allow the cells to resume exponential growth, 0.01 mL of culture medium (6 control wells per plate) or culture medium containing macbecin are added to the wells. Each concentration is plated in triplicate. […] Following 4 days of continuous exposure, cell culture medium with or without test compound is replaced by 0.2 mL of an aqueous propidium iodide (PI) solution (7 mg/L). To measure the proportion of living cells, cells are permeabilized by freezing the plates. After thawing the plates, fluorescence is measured using the Cytofluor 4000 microplate reader (excitation 530 nm, emission 620 nm), giving a direct relationship to the total number of viable cells.
(§6) Growth inhibition is expressed as treated/control×100 (% T/C). For active compounds, IC50 & IC70 values were estimated by plotting compound concentration versus cell viability.

251L = assay: as above; format: cell-based, human; details: mean of duplicate experiments
Method: as §1, §2, §3, §4, §5, §6

394NL = assay: as above; format: cell-based, human; details: mean of duplicate experiments
Method: as §1, §2, §3, §4, §5, §6

DU145 = assay: as above; format: cell-based, human; details: mean of duplicate experiments
Method: as §1, §2, §3, §4, §5, §6

H460 = assay: as above; format: cell-based, human; details: mean of duplicate experiments
Method: as §1, §2, §3, §4, §5, §6

LNCAP = assay: as above; format: cell-based, human; details: mean of duplicate experiments
Method: as §1, §2, §3, §4, §5, §6

MCF7 = assay: as above; format: cell-based, human; details: mean of duplicate experiments
Method: as §1, §2, §3, §4, §5, §6

OVCAR3 = assay: as above; format: cell-based, human; details: mean of duplicate experiments
Method: as §1, §2, §3, §4, §5, §6

SF268 = assay: as above; format: cell-based, human; details: mean of duplicate experiments
Method: as §1, §2, §3, §4, §5, §6

[1] = test system: panel of 12 human tumour cell lines; assay: Monolayer proliferation assay, mean across the cell lines tested; format: cell-based; details: for IC50: Homo sapiens
Method: as §1, §2, §3, §4, §5, §6

FKBP12 = FKBP12 (Homo sapiens, UniProt P62942); assay: FKBP-12 in vitro binding assay (GdnHCl denaturation curve shift)
Sequence of FKBP12 (P62942 whole entry): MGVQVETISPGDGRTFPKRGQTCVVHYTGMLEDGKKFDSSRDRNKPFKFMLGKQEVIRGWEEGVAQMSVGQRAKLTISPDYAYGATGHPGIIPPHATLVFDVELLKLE
Description: FKBP12 reversibly unfolds in the chemical denaturant guandinium hydrochloride (GdnHCl) and the unfolding can be monitored by the change in the intrinsic fluorescence of the protein (Main et al, 1998). Ligands which specifically bind and stabilise the native state of FKBP12 shift the denaturation curve such that the protein unfolds at higher concentrations of chemical denaturant (Main et al, 1999). From the difference in stability, the ligand-binding constant can be determined using equation 1.
[formula] where ΔGapp is the apparent difference in free energy of unfolding between free and ligand-bound forms, ΔGD-N^H^2^O is the free energy of unfolding in water of free protein, [L] the concentration of ligand and Kd the dissociation constant for the protein-ligand complex (Meiering et al, 1992). The free energy of unfolding can be related to the midpoint of the unfolding transition using the following equation: ΔGD-N^H^2^O=mD-N[D]50% (2) where mD-N is a constant for a given protein and given denaturant and which is proportional to the change in degree of exposure of residues on unfolding (Tanford 1968 and Tanford 1970), and [D]50% is the concentration of denaturant corresponding to the midpoint of unfolding. […] Under conditions where [L]>Kd, then, ΔΔGD-N, can be related to the relative Kds of the two compounds through equation 4: […]

A498 = assay: Monolayer proliferation assay (modified propidium iodide); format: cell-based, human; details: mean of duplicate experiments
Method: as §1, §2, §3, §4, §5, §6

MDA231 = assay: as above; format: cell-based, human; details: mean of duplicate experiments
Method: as §1, §2, §3, §4, §5, §6

MDA468 = assay: as above; format: cell-based, human; details: mean of duplicate experiments
Method: as §1, §2, §3, §4, §5, §6

[2] = mean based on the 9 cell lines for which data was available
[3] = mean across the 12 cell lines tested

Kd (FKBP12) [µM]	Compound	Cell Growth (Test/Control (%) at drug concentration) (1138L; 1 μM) [%]	Cell Growth (Test/Control (%) at drug concentration) (1138L; 10 μM) [%]	Cell Growth (Test/Control (%) at drug concentration) (251L; 1 μM) [%]	Cell Growth (Test/Control (%) at drug concentration) (251L; 10 μM) [%]	Cell Growth (Test/Control (%) at drug concentration) (394NL; 1 μM) [%]	Cell Growth (Test/Control (%) at drug concentration) (394NL; 10 μM) [%]	Cell Growth (Test/Control (%) at drug concentration) (DU145; DU145, 1 μM) [%]	Cell Growth (Test/Control (%) at drug concentration) (DU145; DU145, 10 μM) [%]	Cell Growth (Test/Control (%) at drug concentration) (H460; H460, 1 μM) [%]	Cell Growth (Test/Control (%) at drug concentration) (H460; H460, 10 μM) [%]	Cell Growth (Test/Control (%) at drug concentration) (LNCAP; 1 μM) [%]	Cell Growth (Test/Control (%) at drug concentration) (LNCAP; 10 μM) [%]	Cell Growth (Test/Control (%) at drug concentration) (MCF7; MCF7, 1 μM) [%]	Cell Growth (Test/Control (%) at drug concentration) (MCF7; MCF7, 10 μM) [%]	Cell Growth (Test/Control (%) at drug concentration) (OVCAR3; OVCAR3, 1 μM) [%]	Cell Growth (Test/Control (%) at drug concentration) (OVCAR3; OVCAR3, 10 μM) [%]	Cell Growth (Test/Control (%) at drug concentration) (SF268; SF268, 1 μM) [%]	Cell Growth (Test/Control (%) at drug concentration) (SF268; SF268, 10 μM) [%]	Cell Growth (Test/Control (%) at drug concentration) (A498; A498, 1 μM) [%]	other results
0.0037	COC1CC2CCC(C)C(O)(O2)C(=O)C(=O)N2CCCCC2C(=O)OC(C(C)CC2CCC(OCCO)CC2)CC(=O)C(C)C=C(C)C(O)C(OC)C(=O)C(C)CC(C)C=CC=CC=C1C (centres unmarked) [39-desmethoxy-40-O-(2-hydroxy)ethyl rapamycin]	59	4	90	31	55	6	56	7	76	25	49	18	77	10	85	9	63	7		IC50 [1, 2]: 2.2 µM; Mean IC70 [1, 2]: 5.513* microM
0.0011	COC1CC2CCC(C)C(O)(O2)C(=O)C(=O)N2CCCCC2C(=O)OC(C(C)CC2CCC(OC(=O)C(C)(CO)CO)CC2)CC(=O)C(C)C=C(C)C(O)C(OC)C(=O)C(C)CC(C)C=CC=CC=C1C (centres unmarked) [39-desmethoxy-40-O-[2,2-bis(hydroxymethyl)propionyl]rapamycin]	50	7.5	85.5	13	46	13	62.5	13.5	66	12	48.5	20.5	67	9	73.5	39	62.5	12	66	Cell Growth (Test/Control (%) at drug concentration) (A498; A498, 10 μM): 19.5%; Cell Growth (Test/Control (%) at drug concentration) (MDA231; MDA231, 1 μM): 70.5%; Cell Growth (Test/Control (%) at drug concentration) (MDA231; MDA231, 10 μM): 13.5%; Cell Growth (Test/Control (%) at drug concentration) (MDA468; MDA468, 1 μM): 66%; Cell Growth (Test/Control (%) at drug concentration) (MDA468; MDA468, 10 μM): 9%; IC50 [1, 3]: 2 µM; Mean IC70 [1, 3]: 4.5 µM
	CO[C@H]1C[C@@H]2CC[C@@H](C)[C@@](O)(O2)C(=O)C(=O)N2CCCC[C@H]2C(=O)O[C@H]([C@H](C)C[C@@H]2CC[C@@H](O)[C@H](OC)C2)CC(=O)[C@H](C)/C=C(\C)[C@@H](O)[C@@H](OC)C(=O)[C@H](C)C[C@H](C)/C=C/C=C/C=C/1C [Rapamycin, reference compound]	42	21.5	75.5	40	45	44	50.5	54	67	66	61	34	68.5	26.5	69	69.5	53.5	46	58.5	Cell Growth (Test/Control (%) at drug concentration) (A498; A498, 10 μM): 48.5%; Cell Growth (Test/Control (%) at drug concentration) (MDA231; MDA231, 1 μM): 67%; Cell Growth (Test/Control (%) at drug concentration) (MDA231; MDA231, 10 μM): 63.5%; Cell Growth (Test/Control (%) at drug concentration) (MDA468; MDA468, 1 μM): 56.5%; Cell Growth (Test/Control (%) at drug concentration) (MDA468; MDA468, 10 μM): 32%; IC50 [1, 3]: 3.5 µM; Mean IC70 [1, 3]: 9.1 µM

— patent publication US7648996B2 (Biotica Technology Limited, priority 2005, dated 2010)
